Experimental data published in patent publication US12599613B2, “Composition comprising dutasteride” (Chong Kun Dang Pharmaceutical Corp., priority 2018, dated 2026).

Test: Dissolution rate of pharmaceutical composition in vitro (Korean Pharmacopoeia Method I, basket)
Assay type: physicochemical
Conditions: 56 mg dutasteride, 900 mL 1% w/v sodium dodecyl sulfate, 37° C., 100 rpm
Description: A dissolution rate of the inventive compositions in vitro was identified through the following experiment. Example 32 was filled into a disposable syringe in such an amount that corresponds to 56 mg of dutasteride and then injected into a dissolution medium, and Comparative Example 1 was directly put into a rotating basket in such an amount that corresponds to 56 mg of dutasteride. This experiment was performed according to the dissolution test method I in the 10th revision of the Korean Pharmacopocia and the conditions for dissolution are as follows.
<Conditions for Dissolution of Pharmaceutical Composition>
• Dissolution method: Method I of the Korean Pharmacopoeia (Appratus I—Basket) • Dissolution medium: 900 mL of solution containing 1% w/v sodium dodecyl sulfate • Dissolution temperature: 37±0.5° C. • Rotation speed: 100 rpm • Test hour: 1, 3, 6, 12 and 24 hours
With regard to a concentration of dutasteride in a dissolution sample, a dissolution rate for 24 hours was analyzed with HPLC under the condition of Experimental Example 1 and the results thereof were shown in FIG. 2.

SMILES: C[C@]12C=CC(=O)N[C@@H]1CC[C@@H]1[C@@H]2CC[C@]2(C)[C@@H](C(=O)Nc3cc(C(F)(F)F)ccc3C(F)(F)F)CC[C@@H]12 [Comparative Example 1, dutasteride]
- state of dutasteride in the dissolution medium (dissolved / precipitated): a part of the drug only was dissolved into the dissolution medium
- dissolution rate with an elapse of time (24 hours): hardly increased with an elapse of time from one hour after
